{
  "source": "patent US12226410B2",
  "about": "“Methods for enhancing cellular clearance of pathological molecules via activation of the cellular protein ykt6” (NORTHWESTERN UNIVERSITY, priority 2019, dated 2025)",
  "key": {"[1]": {"test_system": "ykt6", "assay": "Measurement of farnesyl-ykt6 in SH-SY5Y cells", "assay_type": "cell-based, human", "settings": "SH-SY5Y cells expressing GFP-ykt6; 10 nM FTI, 48 hours", "procedure": "FIGS. 14A, 14B, 14C, 14D, 14E, 14F, and 14G. The effects of FTI treatment on ykt6 and lysosomes. 14A) Farnesylation of ykt6 was measured in SH-SY5Y cells expressing GFP-ykt6. Cells treated with or without FTI (LNK-754) were cultured with farnesyl-azide to label farnesyl-modified proteins, immunoprecipitated with GFPaffinity beads, and then conjugated with phosphine-biotin. Biotin was detected with streptavidin-conjugated IRDye800, and normalized to total levels of GFP-ykt6. See methods for details. […] 14B) Membrane shift analysis of SH-SY5Y cells stably expressing GFP-ykt6-CS, treated with 5 nM FTI. Calnexin (CNX) and Coomassie blue (CBB) were used as a loading controls. 14C) Gel filtration/western blot analysis of FTI treated A53T iPSn. Ykt6 complex levels eluting at ca. 120A were quantified on the right (n=2). […] 14E) Raw quantification data of LAMP2A immunofluorescence intensity of individual cells from H4 cells treated with FTI, +/−ykt6 KD. Each data point represents LAMP2A intensity from individual cells, from 3 different culture wells. 14F) Analysis of ER-Golgi trafficking of GCase by endo H resistance after treatment with FTI in SH-SY5Y cells overexpressing wt a-syn (n=3). 14G) Western blot analysis of Triton X-100 soluble a-syn in SH-SY5Y wt a-syn cells after treatment with various concentrations of FTI for 5 days. For all quantifications, values are the mean+/−SEM, *p<0.05. […]"}, "[2]": {"test_system": "ykt6", "assay": "FTI treatment of DASYN53 mice: membrane-associated ykt6 and SNARE complexes", "assay_type": "in vivo", "settings": "DASYN53 mice 12-14 months; i.p. 0.9 mg/kg, 26d; olfactory bulbs, midbrain", "procedure": "FIGS. 7A, 7B, 7C, 7D, and 7E. FTI treatment restores functional membrane-associated ykt6 complexes in DASYN53 mice. 7A) Immunohistochemistry in the midbrain of mice showing ykt6, tyrosine hydroxylase (TH), NeuN, and nuclei (DAPI). Scale bar, 50 μm. 7B) Ykt6 membrane shift analysis in olfactory bulbs of FTI (LNK-754)-injected DASYN53 mice (12-14 months, i.p. 26d, 0.9 mg/kg) (n=5, non-transgenic (nTg)+veh; n=4, DASYN53+veh; n=4 DASYN53+FTI). GAPDH and sec22b are loading controls. 7C) SEC/western blot analysis of midbrains of FTI-treated DASYN53 mice. Inputs are shown on the left. NSE is a loading control. […] (n=3, nTg+veh; n=4, DASYN53+veh; n=4 DASYN53+FTI). 7D) Quantification of complexes from SEC in 7C. 7E) GCase maturation was assessed in midbrain lysates by endo H resistance (n=4, nTg+veh; n=4, DASYN53+veh; n=4 DASYN53+FTI). For all quantifications, each point represents a measurement from an individual animal. Values are the mean+/−SEM, *p<0.05; **p<0.01, ***p<0.001, ANOVA with Tukey's post-hoc test.\nTreatment of C57Bl/6 and DASYN53 mice with farnesyltransferase inhibitors. 3 mo old C57BL6 mice were i.p. injected daily with 0.9 mg/kg LNK-754 that was formulated in a vehicle of 0.5% sodium carboxymethylcellulose and filtered before use for 14 days. DASYN53 mice were i.p. injected daily with 0.9 mg/kg LNK-754 as above. […]"}},
  "data": [
    {"smiles": "C#Cc1cccc(-c2cc(=O)n(C)c3ccc([C@](O)(c4ccc(Cl)cc4)c4cncn4C)cc23)c1", "note": "[LNK-754]", "values": [
      {"measurement": "reduction of the farnesyl-ykt6 signal", "setting": "[1]", "result": 40, "unit": "%"},
      {"measurement": "reduced membrane-associated ykt6 and SNARE complexes of DASYN53 mice", "setting": "[2]", "result": "reversed these effects"}
    ]}
  ]
}
